Article PMC6929626, “PET/MRI enables simultaneous in vivo quantification of β-cell mass and function” (Theranostics, 2020)

Assays:
VDCC = assay: Manganese-enhanced MRI (T1 maps, R1, estimated [Mn]) of pancreas and insulinomas; format: in vivo, mice; conditions: for [Mn]: estimated from (R1post-R1pre)/r1
Procedure: In brief, mice were fasted for 4-6 hours and anesthetized with 1-2% isoflurane/O2 gas mixture (Vetland, Louisville, KY, USA) before the in vivo measurements. A tail vein catheter was initially placed for the co-injection of 50 µL of tracer solution (0.12 MBq/g bodyweight) and 50 µL of MnCl2:Bicine solution (75 µmol/kg body weight). The animals were placed in supine position on the bed in order to attenuate the motion artifacts rising from the respiratory movements. Thus, [^64Cu]Ex4 and MnCl2 solution were co-injected i.v. as a bolus a few seconds after the beginning of dynamic PET measurements. An additional i.v. injection of glucose solution (1.5 g/kg) was performed five minutes after the PET tracer and MR contrast agent injection to enhance the metabolic uptake of Mn by the pancreas. PET quantification was performed by 20-min static frames acquired simultaneously with 7T MRI scanner using a compatible PET-insert or consecutively using an Inveon-PET scanner (Inveon Dedicated PET, Siemens Healthineers, Knoxville, TN, USA). MR images were acquired using a mouse body quadrature volume RF-resonator with an inner diameter of 40 mm (MT0205, Bruker) on a 7 T Preclinical MR scanner (BioSpec 70/30, Bruker BioSpin MRI GmbH, Ettlingen, DE). During the acquisition, we monitored the breathing with an MR-compatible breathing sensor. The body temperature was maintained at 37 °C using a water-based warming pad.
In vivo MR measurement started with the acquisition of a rapid acquisition with relaxation enhancement (RARE) turbo-spin-echo (TSE) sequence with a large field of view to perform whole-body imaging with the following MR parameters: fat suppression module, repetition time (TR)/echo time (TE)=800/30.8 ms, respectively, field of view (FoV)=64×32×23 mm^3, matrix size 256×128, one average, bandwidth (BW)=75 kHz, RARE Factor (RF)=16 and an isotropic resolution of 0.25 mm. Then, we acquired consecutive RF-spoiled and slab selective gradient-echo (GRE) pulse sequences with short TR and keeping at the minimum the TE and using the following MR parameters: TR/TE=10/1.9 ms, FoV=34×34×17 mm^3, matrix size 128×128, two averages, BW=75 kHz, Sharpness=7 and approximatively 3 min of acquisition time per scan. Quantification of T1 was calculated by the acquisition of either two flip angles (4°, 22°), 0.27×0.27 mm^2 of in-plane resolution and 0.53 mm of slice thickness, or three flip angles (4°, 14°, 27°) with an isotropic resolution of 0.27 mm as described in Table 1.
The volume of interest (VOI) for the entire pancreas (Pancreas^Control; Pancreas^RIP1-Tag2) and the detected insulinomas (Insulinomas^RIP1-Tag2) were manually drawn in Inveon Research Workplace (Siemens Heathineers) after co-registration of the PET images. The T1-w images and the T1 maps were as well co-registered and used as anatomical references. The co-registered VOIs were exported and analyzed in MATLAB (R2013b; The MathWorks, Natick, MA, USA) using an in-house script. The percent injected dose per mL (%ID/mL) of the PET tracer was calculated voxel-wise by adjusting the radioactivity units (kBq/mL) for the injected activity and the half-life of ^64Cu (t1/2=12.7 h). On the other hand, the longitudinal relaxation rate (R1=1/T1) was calculated from the respective region drawn on the T1 maps. For the quantification, we considered voxels with R1 values between 0.4 and 10 s^-1. The estimated concentrations of Mn ([Mn]) were also calculated voxel-wise by the subtraction image acquired before and after the injection of MR-contrast agent and using the relaxivity (r1) of MnCl2:Bicine ([Mn]∝∆R1=(R1post-R1pre)/r1), which was calculated separately in a phantom study (Method S1 and Fig. S10). The indexes of [Mn] after 24 h were calculated using the overall mean of R1 obtained before and after 24 h, due to the different anatomical localization of the pancreata. […]

[1] = LA-ICP-MS imaging of ^55Mn in pancreas sections, cross-validated with autoradiography; format: in vivo, mice
Procedure: The whole pancreata from control and transgenic RIP1-Tag2 mice were isolated after cervical dislocation under anesthesia. Then, the whole pancreata were embedded in O.C.T. (optimum cutting temperature) embedding compound (Sakura, Zoeterwonde, NL) and snap frozen at -20 °C. Subsequently, serial 20 µm cryosections were obtained using a Cryostat (Leica 1850, Leica GmbH, Wetzlar, DE) and exposed to a 35×43 cm Storage Phosphor Screen (445SI, Molecular Dynamics, Sunnyvale, CA, USA) at room temperature for 24 h and 48 h for animals sacrificed at 1 h and 24 h, respectively. Scanning of the phosphor imaging plate was performed using a Storm 840 scanner (STORM 840, Amersham Biosciences, Amersham, UK) with a spatial resolution of 50x50 µm^2 and analyzed using ImageJ software (US NIH, Bethesda, Maryland, USA). Thus, we calculated the main effect of the PET tracer uptake, expressed as islet-to-exocrine ratio to estimate the islet diameter identified as single spots throughout the pancreas sections in both groups (Fig. S3).
The autoradiography slides were scanned line-by-line at 60 µm laser spot size using an NWR 213 laser ablation system (New Wave Research, Fremont, CA, USA). […] The isotopes ^44Ca, ^65Cu, ^64Zn,^ 55Mn, ^13C were monitored among the exocrine and the endocrine tissue in the healthy and insulinoma mice. […]

MnCl2:Bicine
[Mn] (VDCC; Table S1, VOI Insulinomas 10-wk, 1 h, n=3/4): 1.4 ± 0.2 mM×10^-1
log10(R1)×10^1 (VDCC; Table S1, VOI Insulinomas 10-wk, 1 h, group mean ± SD of medians, n=3/4): 1.8 ± 0.2
[Mn] (VDCC; Table S1, VOI Insulinomas 10-wk, 24 h, n=3/3): 0.8 ± 0.2 mM×10^-1
log10(R1)×10^1 (VDCC; Table S1, VOI Insulinomas 10-wk, 24 h, group mean ± SD of medians, n=3/3): 0.5 ± 0.5
[Mn] (VDCC; Table S1, VOI Insulinomas 13-wk, 1 h, n=3/4): 0.9 ± 0.4 mM×10^-1
log10(R1)×10^1 (VDCC; Table S1, VOI Insulinomas 13-wk, 1 h, group mean ± SD of medians, n=3/4): 0.6 ± 1.1
[Mn] (VDCC; Table S1, VOI Insulinomas 13-wk, 24 h, n=3/3): 0.3 ± 0.4 mM×10^-1
log10(R1)×10^1 (VDCC; Table S1, VOI Insulinomas 13-wk, 24 h, group mean ± SD of medians, n=3/3): 1.6 ± 0.2
[Mn] (VDCC; Table S1, VOI Pancreas Control, 1 h, group mean ± SD, n=3/4): 1.8 ± 0.2 mM×10^-1
log10(R1)×10^1 (VDCC; Table S1, VOI Pancreas Control, 1 h, group mean ± SD of medians, n=3/4): 2.7 ± 0.3
[Mn] (VDCC; Table S1, VOI Pancreas Control, 24 h, group mean ± SD, n=3/3): 0.6 ± 0.2 mM×10^-1
log10(R1)×10^1 (VDCC; Table S1, VOI Pancreas Control, 24 h, group mean ± SD of medians, n=3/3): 1.0 ± 0.8
[Mn] (VDCC; Table S1, VOI Pancreas RIP1-Tag2 10-wk, 1 h, n=3/4): 1.2 ± 0.2 mM×10^-1
log10(R1)×10^1 (VDCC; Table S1, VOI Pancreas RIP1-Tag2 10-wk, 1 h, group mean ± SD of medians, n=3/4): 1.5 ± 0.6
[Mn] (VDCC; Table S1, VOI Pancreas RIP1-Tag2 10-wk, 24 h, n=3/3): 0.4 ± 0.1 mM×10^-1
log10(R1)×10^1 (VDCC; Table S1, VOI Pancreas RIP1-Tag2 10-wk, 24 h, group mean ± SD of medians, n=3/3): 0.0 ± 0.2
[Mn] (VDCC; Table S1, VOI Pancreas RIP1-Tag2 13-wk, 1 h, n=3/4): 1.0 ± 0.5 mM×10^-1
log10(R1)×10^1 (VDCC; Table S1, VOI Pancreas RIP1-Tag2 13-wk, 1 h, group mean ± SD of medians, n=3/4): 0.9 ± 1.6
[Mn] (VDCC; Table S1, VOI Pancreas RIP1-Tag2 13-wk, 24 h, n=3/3): 0.5 ± 0.4 mM×10^-1
log10(R1)×10^1 (VDCC; Table S1, VOI Pancreas RIP1-Tag2 13-wk, 24 h, group mean ± SD of medians, n=3/3): 0.1 ± 0.3
log10(R1)×10^1 (VDCC; VOI Insulinomas RIP1-Tag2 10-15 wk pooled, 1 h after i.v. 75 µmol/kg, mean ± SD): 1.2 ± 1.2
log10(R1)×10^1 (VDCC; VOI Insulinomas RIP1-Tag2 10-15 wk pooled, 24 h after i.v. 75 µmol/kg, mean ± SD): 0.4 ± 0.5
log10(R1)×10^1 (VDCC; VOI Pancreas Control, 1 h after i.v. 75 µmol/kg, 7 T, three flip angles, R1=1/T1, mean ± SD, n=3): 3.0 ± 0.7
log10(R1)×10^1 (VDCC; VOI Pancreas Control, 24 h after i.v. 75 µmol/kg, 7 T, three flip angles, mean ± SD, n=6): 0.1 ± 0.6
log10(R1)×10^1 (VDCC; VOI Pancreas RIP1-Tag2 10-15 wk pooled, 1 h after i.v. 75 µmol/kg, mean ± SD, n=7): 1.2 ± 1.1
log10(R1)×10^1 (VDCC; VOI Pancreas RIP1-Tag2 10-15 wk pooled, 24 h after i.v. 75 µmol/kg, mean ± SD, n=13): -0.1 ± 0.4
[Mn] estimated in vivo, times lower in detected insulinomas than in pancreas of control mice (VDCC; early time points (1 h)): ~2 times
spatial distribution of exogenous ^55Mn in pancreas sections ([1]; 1 h after injection, merged elemental images of ^55Mn, ^44Ca, ^64Zn, control and 13-wk RIP1-Tag2 mice): higher concentration of ^55Mn in the exocrine pancreas
spatial distribution of exogenous ^55Mn in pancreas sections ([1]; 24 h after injection, control and RIP1-Tag2 mice): only low levels of ^55Mn were found in the exocrine pancreas
